Source: publication PMC12865225 (Clinical and Translational Science, 2026)
Marks after values point to notes of the source that are not given here.

How the values were obtained:
[1] = Static model DDI risk evaluation (FDA R values), inhibitor concentrations; set-up: species or system human; conditions: for I in,max,u maximum unbound plasma inhibitor concentration at liver inlet: 1000 mg oral dose, Fa×Fg 1, ka 0.1/min; for Igut intestinal luminal concentration: dose/250 mL
Description: To evaluate potential clinical DDIs for transporters, the FDA R values were calculated according to the FDA In Vitro Drug Interaction Studies guidance. Equation (3) was used to estimate the maximum unbound plasma inhibitor concentration at liver inlet (I in,max) for OATPs, where f u,p is the unbound fraction in plasma, C max is the maximal total concentration in plasma, F a is the fraction absorbed after oral administration, F g is the fraction available after intestinal metabolism, k a is the first‐order absorption rate constant in vivo, dose is the oral dose, Q h is the hepatic blood flow, and R B is the blood‐to‐plasma concentration ratio. (3) Iin,max,u=fu,p×Cmax+Fa×Fg×ka×Dose/Qh×RB
Hepatic blood flow (Q h) was set to 1.620 L/min [31].

[2] = target: T1, BCRP (Homo sapiens, UniProt Q9UNQ0); assay: BCRP inhibition, rosuvastatin transport in HEK293 membrane vesicles; type: biochemical; conditions: R = I gut/IC50, FDA cut-off ≥ 10
T1 construct: made in house; host or cells: membrane vesicles from HEK293 cells expressing the transporter
T1 sequence (Q9UNQ0 1-655): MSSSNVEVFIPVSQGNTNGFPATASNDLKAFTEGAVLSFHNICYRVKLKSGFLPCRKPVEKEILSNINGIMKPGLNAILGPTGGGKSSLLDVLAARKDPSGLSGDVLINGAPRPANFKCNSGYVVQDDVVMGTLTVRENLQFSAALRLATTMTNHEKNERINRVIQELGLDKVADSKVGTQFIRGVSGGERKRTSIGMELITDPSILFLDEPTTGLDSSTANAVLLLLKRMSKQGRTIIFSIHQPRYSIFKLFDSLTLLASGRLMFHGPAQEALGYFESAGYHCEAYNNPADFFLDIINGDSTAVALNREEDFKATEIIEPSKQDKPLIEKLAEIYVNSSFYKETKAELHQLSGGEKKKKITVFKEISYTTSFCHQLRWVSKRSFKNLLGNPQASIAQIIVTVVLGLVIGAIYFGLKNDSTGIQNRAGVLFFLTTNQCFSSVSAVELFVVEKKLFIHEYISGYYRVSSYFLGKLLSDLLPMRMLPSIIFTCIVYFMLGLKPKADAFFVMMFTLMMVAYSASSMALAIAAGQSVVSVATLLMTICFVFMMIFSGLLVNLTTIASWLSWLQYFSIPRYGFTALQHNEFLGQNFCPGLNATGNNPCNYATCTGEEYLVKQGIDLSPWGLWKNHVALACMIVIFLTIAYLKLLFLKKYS
Description: Membrane vesicles, 5 μL (7.5 μg of total protein), prepared as previously reported, were aliquoted to wells of a conical‐shaped 96‐well plate. The plate was incubated for 10 min at +37°C before the initiation of transport by adding 25 μL of TS‐buffer (10 mM Tris, 250 mM sucrose, pH adjusted to 7.4 with HEPES) containing magnesium chloride (10 mM final in the reaction), adenosine triphosphate (ATP) or adenosine monophosphate (AMP), 4 mM final in the reaction, and the transporter substrate and inhibitor. Each experiment included triplicate samples for both ATP and AMP samples. The concentrations of rosuvastatin and N‐methyl‐quinidine were 1 μM in the BCRP and P‐gp vesicle inhibition assays, respectively. The transport reaction times were 1 and 2 min for BCRP and P‐gp, respectively. […] The transport reactions were quenched by adding 200 μL of cold TS‐buffer to each well and transferring the samples to a 96‐multiwell 1.0 μm glass fiber filter plate (Merck Millipore, Darmstadt, Germany) kept under vacuum. […]
For the inhibition data analysis, the average of measured concentrations in the control cells was subtracted from the average of measured concentrations in transporter‐expressing cells for each inhibitor concentration and then normalized to the vehicle sample that represents 100% transport activity. […]

SMILES | I in,max,u maximum unbound plasma inhibitor concentration at liver inlet [1] | I max,u maximal unbound plasma concentration at steady state ([1]; C max × f u) | Igut intestinal luminal concentration [1] | Calculated R-value BCRP [2]
Cc1onc(-c2c(Cl)cccc2Cl)c1C(=O)N[C@@H]1C(=O)N2[C@@H]1SC(C)(C)[C@@H]2C(=O)O [Dicloxacillin] | 5.51 µM | 1.34 µM | 8505 µM | 51 ^b
Cc1onc(-c2c(F)cccc2Cl)c1C(=O)N[C@@H]1C(=O)N2[C@@H]1SC(C)(C)[C@@H]2C(=O)O [Flucloxacillin] | 15.7 µM |  | 8813 µM | 23 ^b
